{"source": "patent US8557859B2", "about": "“Immunomodulatory compositions” (Summit (Wales) Limited, priority 2003, dated 2013)", "system": "Dendritic cells", "assay": "Induction of IL-12 secretion in dendritic cells (ELISA)", "assay_type": "cell-based, BALB/c mice", "conditions": "dendritic cells; compounds 50 μg/ml and 20 μg/ml, 24 hrs (or 48 hrs)", "description": "BALB/c male and female mice bred and maintained at the University of Strathclyde under conventional conditions were used at 8 weeks old.\nBone marrow was obtained from the femurs of mice. The femurs were washed in 70% ethanol and placed in a clean petri dish. Dendritic cell (DC) medium (2.5% granulocyte-macrophage colony-stimulating factor (GM-CSF), 10% […] foetal calf serum, 1% L-glutamine, 1% Penicillin/Streptomycin in RPMI-1640 medium) was injected into the bone marrow of the femur by a pumping action and the cells and medium were collected. 1 ml of the cells in medium was added to a 75 cm^2 flask with 15 mls of DC medium. The flasks were then incubated at 37° C., 5% CO2 to allow DC growth and development. After 5 days an additional 10 mls of DC medium was added.\nAfter 10 days of incubation of bone marrow with GM-CSF, the dendritic cells were harvested. This process was carried out in a tissue culture hood. The contents of the flasks were poured into centrifuge tubes to ensure collection of floating DCs. Approximately 10 mls of cooled phosphate buffered saline (PBS) was added to each empty flask, the flasks gently agitated and the contents collected. […] The collected contents of the flasks were centrifuged for 5 minutes at 200 g and the pellet resuspended in 2 mls of DC medium without GM-CSF. A cell count was then carried out.\nCells were counted using a haemocytometer. Approximately 20 μl of the resuspended cells was pipetted into the chamber of the haemocytometer, the cells were adjusted to the correct cell concentration (approx. 5×10^4, and not less than 1×10^4, per well) and then plated out for assay.\nThe plates were incubated overnight at 37° C. with 5% CO2 and allowed to settle (harvesting stimulates them). The next day the compounds (50 μg/ml and 20 μg/ml) and controls were added then again incubated at 37° C. with 5% CO2 for 24 hrs (or 48 hrs). Harvesting and addition of the compounds was all done in a hood. The plates were then frozen to kill the cells and once defrosted the supernatant analysed as described below.\nUsing an enzyme linked immunosorbent assay (ELISA) IL-12 concentration in the supernatants was measured. All reagents used in this assay were from PharMingen. A 96-well flat-bottomed ELISA plate was coated with purified rat anti-mouse IL-12 (p40/p70) MAb (Cat no. 554478) at 2 μg/ml diluted in PBS pH 9.0 at 50 μl/well. The plate was then covered in cling film and incubated at 4° C. Following incubation the plate was washed 3 times in washing buffer and dried. 200 μl of blocking buffer (10% foetal calf serum in PBS pH 7.0) was added to each well then covered in cling film and incubated at 37° C. for 45 minutes. The plate was washed 3 times and dried. Recombinant mouse Il-12 standard was added at 30 μl in duplicate wells, starting at 10 ng/ml then 5, 2.5, 1.25, 0.625, 0.31, 0.156, 0.078, 0.039, 0.020, 0.010, 0.005 ng/ml. Standards were diluted in blocking buffer. The supernatant samples were added in at 50 μl/well. The plate was then covered in cling film and incubated for 2 hours at 37° C. The plate was then washed 4 times, dried and the secondary antibody added.\nBiotin labelled anti-mouse IL-12 (p40/p70) MAb (Cat no. 18482D) at 1 μg/ml (diluted in blocking buffer) was added to each well at a volume of 100 μl/well. The plate was covered in cling film and incubated at 37° C. for 1 hour. The plate was then washed 5 times, dried and the conjugate added. Streptavidin-AKP (Cat no. 13043E) at 100 μl/well was added at a dilution of 1/2000 in blocking buffer followed by incubation under cling film at 37° C. for 45 minutes.\nThe plate was finally washed 6 times, dried and the substrate added. pNPP (Sigma) in glycine buffer at 1 mg/ml was added at 100 μl/well. The plate was then covered in tinfoil, incubated at 37° C. and checked every 30 minutes for a colour change.\nThe plate was then read at 405 nm using a SPECTRAmax 190 spectrometer.", "data": [{"smiles": "OC[C@@H]1[C@@H](O)[C@H](O)[C@H]2[C@H](O)[C@@H](O)CN21", "note": "[casuarine (8), (1R,2R,3R,6S,7S,7aR)-3-(hydroxymethyl)-1,2,6,7-tetrahydroxypyrrolizidine]", "values": [{"measurement": "IL-12 RELEASE", "value": "Yes"}]}]}
